Assays:
Rattus norvegicus [1] = assay: Memory enhancement effect in time-delay induced Wistar rat model of amnesia assessed as exploration time for object2 at 3 mg/kg, po administered as single dose after acquisition trial by novel object recognition test (reference value: 21.07 sec); assay type: functional
[2] = Tmax in Wistar rat plasma at 10 mg/kg, po after 1 to 144 hrs by LC-MS/MS analysis; assay type: ADME, organism-based
Rattus norvegicus [3] = assay: Memory enhancement effect in time-delay induced Wistar rat model of amnesia assessed as exploration time for familiar object at 1 mg/kg, po administered as single dose after acquisition trial by novel object recognition test (reference value: 10.6 sec); assay type: functional
Rattus norvegicus [4] = assay: Improvement in social recognition scopolamine-induced Sprague-Dawley rat model of amnesia assessed as increase in reduction in social investigation time at 3 mg/kg, po administered as single dose prior to 1 hr training and measured after 30 mins (reference value: 9.81%); assay type: functional; set-up: scale not given: the % may be the effect or the level left
[5] = Unbound brain-to-plasma concentration ratio in Wistar rat at 10 mg/kg, po after 48 hrs by LC-MS/MS analysis; assay type: ADME, organism-based; settings: read-out: K(p,uu,brain)
Rattus norvegicus [6] = assay: Improvement in social recognition time delay-induced Sprague-Dawley rat model of amnesia assessed as increase in reduction in social investigation time at 0.15 mg/kg, po for 7 days and measured on day 9 (reference value: -0.5%); assay type: functional; set-up: scale not given: the % may be the effect or the level left
[7] = Drug level in Sprague-Dawley rat plasma at 0.5 mg/kg, po for 7 days; assay type: ADME, organism-based
Rattus norvegicus [8] = assay: Memory enhancement effect in time-delay induced Wistar rat model of amnesia assessed as exploration time for object1 at 1 mg/kg, po administered as single dose after acquisition trial by novel object recognition test (reference value: 19.09 sec); assay type: functional
Rattus norvegicus [9] = assay: Memory enhancement effect in time-delay induced Wistar rat model of amnesia assessed as exploration time for novel object in retention trial at 0.05 mg/kg, po for 7 days and measured on day 8 by novel object recognition test (reference value: 15.37 sec); assay type: functional
[10] = Drug level in Sprague-Dawley rat plasma at 0.15 mg/kg, po for 7 days; assay type: ADME, organism-based
Rattus norvegicus [11] = assay: Memory enhancement effect in scopolamine-induced Wistar rat model of amnesia assessed as increase in discrimination index at 0.5 mg/kg, po for 7 days and measured on day 8 by novel object recognition test (reference value: 0.21); assay type: functional
[12] = Half life in Wistar rat at 1 mg/kg, iv after 0.083 to 144 hrs by LC-MS/MS analysis; assay type: ADME, organism-based; settings: in vivo
[13] = Drug concentration in Wistar rat plasma at 10 mg/kg, po after 1 hr by LC-MS/MS analysis; assay type: ADME, organism-based
[14] = Half life in BALB/c mouse at 10 mg/kg, po after 0.25 to 144 hrs by LC-MS/MS analysis; assay type: ADME, organism-based; settings: in vivo
[15] = Tmax in Wistar rat at 1 mg/kg, iv after 0.083 to 144 hrs by LC-MS/MS analysis; assay type: ADME, organism-based; settings: in vivo
Rattus norvegicus [16] = assay: Memory enhancement effect in time-delay induced Wistar rat model of amnesia assessed as exploration time for familiar object at 3 mg/kg, po administered as single dose after acquisition trial by novel object recognition test (reference value: 10.6 sec); assay type: functional
Rattus norvegicus [17] = assay: Memory enhancement effect in time-delay induced Wistar rat model of amnesia assessed as exploration time for object2 in acquisition trial at 0.5 mg/kg, po for 7 days and measured on day 8 by novel object recognition test (reference value: 11.76 sec); assay type: functional
Cytochrome P450 1A2 = molecular target: T1, Cytochrome P450 1A2 (Homo sapiens, UniProt P05177); assay: Inhibition of CYP1A2 (unknown origin) up to 10 uM; assay type: ADME
T1 sequence (P05177 whole entry): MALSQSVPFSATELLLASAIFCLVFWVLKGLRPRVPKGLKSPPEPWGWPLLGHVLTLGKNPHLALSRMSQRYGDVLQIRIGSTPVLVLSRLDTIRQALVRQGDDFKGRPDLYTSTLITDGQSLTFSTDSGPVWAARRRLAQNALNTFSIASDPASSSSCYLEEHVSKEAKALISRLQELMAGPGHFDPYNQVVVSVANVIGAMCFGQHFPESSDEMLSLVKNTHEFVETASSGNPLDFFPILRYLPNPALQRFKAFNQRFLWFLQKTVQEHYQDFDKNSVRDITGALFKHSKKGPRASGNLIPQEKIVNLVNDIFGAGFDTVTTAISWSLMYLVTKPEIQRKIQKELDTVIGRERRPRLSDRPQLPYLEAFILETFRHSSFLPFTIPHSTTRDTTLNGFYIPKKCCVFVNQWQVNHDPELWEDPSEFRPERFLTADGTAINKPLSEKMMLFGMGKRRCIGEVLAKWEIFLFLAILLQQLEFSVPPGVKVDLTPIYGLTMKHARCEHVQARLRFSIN

[18] = Cmax in Beagle dog at 1 mg/kg, iv after 0.083 to 144 hrs by LC-MS/MS analysis; assay type: ADME, organism-based, Canis lupus familiaris; set-up: dose 1 mg/kg, route intravenous; settings: in vivo
[19] = Drug level in scopolamine-induced Sprague-Dawley rat brain at 0.5 mg/kg, po for 7 days; assay type: ADME, organism-based; settings: read-out: Drug uptake
Rattus norvegicus [20] = assay: Improvement in social recognition time delay-induced Sprague-Dawley rat model of amnesia assessed as reduction in recognition index 3 mg/kg, po administered as single dose prior to 1 hr training and measured after 30 mins (reference value: 1); assay type: functional
Rattus norvegicus [21] = assay: Improvement in social recognition scopolamine-induced Sprague-Dawley rat model of amnesia assessed as reduction in recognition index at 0.50 mg/kg, po for 7 days measured after 24 hrs (reference value: 0.93); assay type: functional
[22] = Elimination half life in human at 7.5 to 100 mg; assay type: ADME; settings: read-out: beta t1/2
Rattus norvegicus [23] = assay: Memory enhancement effect in time-delay induced Wistar rat model of amnesia assessed as increase in discrimination index at 0.15 mg/kg, po for 7 days and measured on day 8 by novel object recognition test (reference value: 0.12); assay type: functional
Rattus norvegicus [24] = assay: Memory enhancement effect in time-delay induced Wistar rat model of amnesia assessed as exploration time for object1 in acquisition trial at 0.05 mg/kg, po for 7 days and measured on day 8 by novel object recognition test (reference value: 13.73 sec); assay type: functional
[25] = Clearance in BALB/c mouse at 1 mg/kg, iv after 0.083 to 144 hrs by LC-MS/MS analysis; assay type: ADME, organism-based; settings: in vivo

Question: For `CCC(=O)c1sc(-c2ccc(Cl)cc2)c(C)c1-c1ccc(S(N)(=O)=O)cc1`, which Time (Rattus norvegicus [1]) is on record?
Answer: The Time was 21.46 s.

Question: What about the Tmax [2] of the same compound?
Answer: The Tmax was 1 h.

Question: And the Time (Rattus norvegicus [3])?
Answer: Its Time is 11.94 s.

Question: What about the Activity (Rattus norvegicus [4]) of the same compound?
Answer: Its Activity is 55.09%.

Question: What about the Kp uu at 48 h [5] of the same compound?
Answer: Its Kp uu at 48 h is 1.15.

Question: What about the Activity (Rattus norvegicus [6]) of the same compound?
Answer: The Activity was 43.63%.

Question: And the concentration at 168 h [7]?
Answer: Its concentration at 168 h is 1120 nM.

Question: And the Time (Rattus norvegicus [8])?
Answer: Its Time is 20.6 s.

Question: What about the Time (Rattus norvegicus [9]) of the same compound?
Answer: The Time was 13.91 s.

Question: And the concentration at 168 h [10]?
Answer: The concentration at 168 h was 320 nM.

Question: What about the Activity_index (Rattus norvegicus [11]) of the same compound?
Answer: Its Activity_index is 0.45.

Question: What about the half-life [12] of the same compound?
Answer: The half-life was 45 h.

Question: And the concentration at 1 h [13]?
Answer: Its concentration at 1 h is 870 nM.

Question: And the half-life [14]?
Answer: Its half-life is 22 h.

Question: What about the Tmax [15] of the same compound?
Answer: Its Tmax is 4.8 min.

Question: And the Time (Rattus norvegicus [16])?
Answer: Its Time is 5.9 s.

Question: What about the Time (Rattus norvegicus [17]) of the same compound?
Answer: Its Time is 12.42 s.

Question: And the “inhibition (INH)” value (Cytochrome P450 1A2)?
Answer: Its value is “Not Active”.

Question: What about the Cmax [18] of the same compound?
Answer: The Cmax was 3000 nM.

Question: What about the concentration at 168 h [19] of the same compound?
Answer: The concentration at 168 h was 2130 nM.

Question: What about the Activity_index (Rattus norvegicus [20]) of the same compound?
Answer: The Activity_index was 0.47.

Question: What about the Activity_index (Rattus norvegicus [21]) of the same compound?
Answer: The Activity_index was 0.75.

Question: And the half-life [22]?
Answer: The half-life was 15.5 to 77 h.

Question: And the Activity_index (Rattus norvegicus [23])?
Answer: The Activity_index was 0.3.

Question: What about the Time (Rattus norvegicus [24]) of the same compound?
Answer: The Time was 15.2 s.

Question: What about the clearance [25] of the same compound?
Answer: The clearance was 3.6 mL/min/kg.

Reference: ChEMBL document CHEMBL4354827, “Discovery of Novel, Potent, Brain-Permeable, and Orally Efficacious Positive Allosteric Modulator of α7 Nicotinic Acetylcholine Receptor [4-(5-(4-Chlorophenyl)-4-methyl-2-propionylthiophen-3-yl)benzenesulfonamide]: Structure-Activity Relationship and Preclinical Characterization” (J Med Chem, 2020)
